Data as given in ChEMBL document CHEMBL2385014, “Melanogenesis inhibitory daphnane diterpenoids from the flower buds of Daphne genkwa” (Bioorg Med Chem Lett, 2013).

Key:
B16 [1] = assay: Inhibition of melanin production in alpha-MSH stimulated mouse B16 cells after 72 hrs by spectrophotometry; type: functional, cell-based; settings: for IC50: B16, 72 h
B16 [2] = assay: Cytotoxicity against alpha-MSH stimulated mouse B16 cells after 72 hrs by MTT assay; type: cell-based; settings: B16, 72 h

| SMILES | inhibition (B16 [1]) | IC50 (B16 [1]) [µM] | IC50 (B16 [2]) [µM] |
| --- | --- | --- | --- |
| C=C(C)[C@@]12OC3(/C=C/C=C/CCCCC)O[C@@H]1[C@@H]1[C@@H]4O[C@]4(CO)[C@@H](O)[C@]4(O)C(=O)C(C)=C[C@H]4[C@@]1(O3)[C@H](C)[C@H]2OC(=O)CC | Dose-dependent effect | 0.19 | 28 |
| OC[C@H]1O[C@@H](Oc2ccc(O)cc2)[C@H](O)[C@@H](O)[C@@H]1O [ARBUTIN] | – | 140 | – |
| C=C(C)[C@]12C[C@@H](C)[C@@]34OC(c5ccccc5)(O[C@@H]1[C@@H]3[C@H](O)[C@](O)(COC(=O)/C=C/C=C/CCCCC)[C@@H](O)[C@@]1(O)[C@H]4C[C@H](C)[C@@H]1O)O2 | Dose-dependent effect | 0.57 | > 30 |
| C=C(C)[C@@]12OCO[C@@H]1[C@@H]1[C@@H]3O[C@]3(CO)[C@@H](O)[C@]3(O)C(=O)C(C)=C[C@H]3[C@@]1(Oc1ccccc1)[C@H](C)[C@H]2OC(=O)c1ccccc1 [GENKWADAPHNIN] | Dose-dependent effect | 0.18 | > 30 |
| C=C(C)[C@@]12OC3(C)O[C@@H]1[C@@H]1C=C(CO)C[C@]4(O)C(=O)C(C)=C[C@H]4[C@@]1(O3)[C@H](C)[C@H]2OC(C)=O | Dose-dependent effect | 4.9 | > 30 |
| C=C(C)[C@@]12O[C@@]3(/C=C/C=C/CCCCC)O[C@@H]1[C@@H]1[C@@H]4O[C@]4(CO)[C@@H](O)[C@]4(O)C(=O)C(C)=C[C@H]4[C@@]1(O3)[C@H](C)[C@H]2OC(=O)c1ccccc1 [GNIDILATIDIN] | Dose-dependent effect | 0.16 | > 30 |
| C=C(C)[C@]12C[C@@H](C)[C@@]34OC(c5ccccc5)(O[C@@H]1[C@@H]3[C@H](O)[C@](O)(CO)[C@@H](O)[C@@]1(O)[C@H]4C[C@H](C)[C@@H]1O)O2 | Dose-dependent effect | 9 | > 30 |
| C=C(C)[C@@]12O[C@@]3(/C=C/C=C/CCCCC)O[C@@H]1[C@@H]1[C@@H]4O[C@]4(CO)[C@@H](O)[C@]4(O)C(=O)C(C)=C[C@H]4[C@@]1(O3)[C@H](C)[C@H]2OC(C)=O [YUANHUADINE] | Dose-dependent effect | 0.06 | 22 |
| C=C(C)[C@@]12OC3(C)O[C@@H]1[C@@H]1C=C(CO)C[C@]4(O)C(=O)C(C)=C[C@H]4[C@@]1(O3)[C@H](C)[C@H]2OC(=O)c1ccccc1 | – | 2.3 | 6.6 |
| C=C(C)[C@]12C[C@@H](C)[C@@]34OC(c5ccccc5)(O[C@@H]1[C@@H]3[C@H](O)[C@](O)(COC(=O)c1ccccc1)[C@@H](O)[C@@]1(O)[C@H]4C[C@H](C)[C@@H]1O)O2 | Dose-dependent effect | 2 | > 30 |
